Results as given in patent US20090131356A1, “miR-15, miR-26, miR-31, miR-145, miR-147, miR-188, miR-215, miR-216, miR-331, mmu-miR-292-3P REGULATED GENES AND PATHWAYS AS TARGETS FOR THERAPEUTIC INTERVENTION” (ASURAGEN, INC., priority 2006, published 2009).

Legend:
Type in all cases: cell-based, human
[1] = system: H522 cells; experiment: Alamar Blue proliferation assay, H522
Text: (§1) The inventors assessed the therapeutic effect of hsa-miR-147 for lung cancer by using 12 individual lung cancer cell lines. To measure cellular proliferation of lung cancer cells, the following parental non-small cell lung cancer (NSCLC) cells were used: cells derived from lung adenocarcinoma (A549, H1299, H522, H838, Calu-3, HCC827, HCC2935), cells derived from lung squamous cell carcinoma (H520, H226), cells derived from lung adenosquamous cell carcinoma (H596), cells derived from lung bronchioalveolar carcinoma (H1650), and cells derived from lung large cell carcinoma (H460). In addition to these parental cell lines, highly metastatic NSCLC cells were used that stably express the firefly luciferase gene: A549-luc, H460-luc, HCC827-luc, H1650-luc, H441-luc. Unlike the parental cell lines, these metastatic cells readily migrate to distant sites of the test animal and form metastases upon subcutaneous, orthotopic, or intravenous injection. Synthetic hsa-miR-147 or negative control miRNA was delivered via lipid-based transfection into A549, H1299, H522, H838, Calu-3, HCC827, HCC2935, H520, H596, H1650, H460, A549-luc, H460-luc, HCC827-luc, H1650-luc, H441-luc cells and via electroporation into H226 cells. Lipid-based reverse transfection was carried out in triplicates according to a published protocol and the following parameters: 5000-12000 cells per 96 well, 0.1-0.2 μl lipofectamine-2000 (Invitrogen, Carlsbad, Calif.) in 20 μl OptiMEM (Invitrogen), […] final concentration of miRNA in 100 μl (Ovcharenko et al., 2005). Electroporation of H226 cells was carried out using the BioRad GenePulserXcell™ instrument with the following settings: 5×10^6 cells with 5 μg miRNA in 200 μl OptiMEM, square wave pulse at 250 V for 5 ms. Electroporated H226 cells were seeded at 7000 cells per 96-well in a total volume of 100 μl. All cells except for Calu-3 cells were harvested 72 hours post transfection or electroporation for assessment of cellular proliferation. Calu-3 cells were harvested 10 days post transfection. […]

[2] = system: HCC827 cells; experiment: Alamar Blue proliferation assay, HCC827
Text: as §1

[3] = system: H838 cells; experiment: Alamar Blue proliferation assay, H838
Text: as §1

[4] = system: H1299 cells; experiment: Alamar Blue proliferation assay, H1299
Text: as §1, with “ms.” for “ms. Electroporated H226 cells were seeded at 7000 cells per 96-well in a total volume of 100 μl. All cells except for Calu-3 cells were harvested 72 hours post transfection or electroporation for assessment of cellular proliferation. Calu-3 cells were harvested 10 days post transfection.”
The inventors determined sensitivity and specificity of hsa-miR-147 by administering hsa-miR-147 or negative control miRNA at increasing concentrations, ranging from 0 pM to 3 nM. Delivery of miRNA and cellular proliferation of A549 and H1299 cells was assessed as described above. […]

[5] = system: H460 lung cancer cells; experiment: Alamar Blue proliferation assay of pair-wise miRNA combinations; details: for % proliferation: H460 cells, normalized to 600 pM negative control (NC) miRNA
Text: miRNAs function in multiple pathways controlling multiple cellular processes. Cancer cells frequently show aberrations in several different pathways which determine their oncogenic properties. Therefore, combinations of multiple miRNAs may provide a better therapeutic benefit rather than a single miRNA. The inventors assessed the efficacy of pair-wise miRNA combinations, administering hsa-miR-147 concurrently with hsa-miR-124a, hsa-miR-126, hsa-let7b, hsa-let-7c or hsa-let7g. H460 lung cancer cells were transiently reverse transfected in triplicates with each miRNA at a final concentration of 300 pM, totaling in 600 pM of oligonucleotide. As a negative control, 600 pM of negative control miRNA (pre-miR NC#2, Ambion) was used. To correlate the effect of various combinations with the effect of the sole miRNA, each miRNA at 300 pM was also combined with 300 pM negative control miRNA. Reverse transfection was carried using the following parameters: 7000 cells per 96 well, 0.15 μl lipofectamine2000 (Invitrogen) in 20 μl OptiMEM (Invitrogen), 100 μl total transfection volume. […] Cells were harvested 72 hours after transfection and subjected to Alamar Blue assays (Invitrogen). Alamar Blue values were normalized to the ones obtained from cells treated with 600 pM negative control miRNA. Data are expressed as % proliferation relative to negative control miRNA-treated cells.
As shown in FIG. 4 and Table 9, transfection of 300 pM hsa-miR-147 reduces proliferation of H460 cells by 23%. […] Additive activity of pair-wise combinations (e.g., hsa-miR-147 plus hsa-miR-124a) is defined as an activity that is greater than the sole activity of each miRNA (e.g., activity of hsa-miR-147 plus hsa-miR-124a>hsa-miR-147 plus NC AND activity of hsa-miR-147 plus hsa-miR-124a>hsa-miR-124a plus NC). Synergistic activity of pair-wise combinations is defined as an activity that is greater than the sum of the sole activity of each miRNA (e.g., activity of hsa-miR-147 plus hsa-miR-124a>SUM [activity of hsa-miR-147 plus NC AND activity of hsa-miR-124a plus NC]). […]

[6] = system: H441-luc cells; experiment: Alamar Blue proliferation assay, H441-luc
Text: as §1

[7] = etoposide 10 μM, normalized to negative control miRNA (100%)
[8] = etoposide 50 μM, normalized to negative control miRNA (100%)
[9] = 30 nM, normalized to negative control miRNA (100% proliferation)

| Compound | % proliferation [1, 7] | % proliferation [1, 8] | % proliferation [2, 7] | % proliferation [2, 8] | % proliferation [3, 7] | % proliferation [3, 8] | % proliferation [4, 7] | % proliferation [4, 8] | % proliferation ([5]; etoposide 10 μM) | % proliferation ([5]; etoposide 50 μM) | % proliferation [6, 7] | % proliferation [6, 8] | % proliferation [1, 9] | % proliferation [2, 9] | % proliferation [3, 9] | % proliferation [4, 9] | reduction of proliferation of H460 cells ([5]; 300 pM single miRNA plus 300 pM negative control miRNA, 72 hours, vs 600 pM negative control miRNA) | % proliferation [6, 9] |
| --- | --- | --- | --- | --- | --- | --- | --- | --- | --- | --- | --- | --- | --- | --- | --- | --- | --- | --- |
| COc1cc([C@@H]2c3cc4c(cc3[C@@H](O[C@@H]3O[C@@H]5CO[C@@H](C)O[C@H]5[C@H](O)[C@H]3O)[C@H]3COC(=O)[C@H]23)OCO4)cc(OC)c1O [Etoposide, etoposide] | 82.13% | 61.08% | 98.95% | 82.53% | 89.71% | 36.97% | 79.65% | 54.38% | 20.19% | 14.94% | 41.22% | 1.99% |  |  |  |  |  |  |
| hsa-miR-147: Synthetic pre-miR-147 (Ambion AM17100; Dharmacon in vivo); mature sequence GUGUGUGGAAAUGCUUCUGC, MIMAT0000251, SEQ ID NO:114 (synthetic pre-miR (Ambion/Dharmacon), chemistry not given here; listed as Homo sapiens) |  |  |  |  |  |  |  |  |  |  |  |  | 89.21% | 76.18% | 71.44% | 78.22% | 23% | 55.53% |
